The nature of one data set: Solubility in water. The data set is classed as physicochemical.
A further data set deals with HIV-89.6. Description: HIV binding in culture supernatant, total HIV RNA in supernatant. The following applies: non-sulfated, unmodified oligochitosan. How it is done:
The desired compound in PBS or DMSO was incubated with virus for 30 min and then centrifuged. Total RNA isolated from supernatant was quantified. The assay was done in triplicate.
Medium/blood samples. To ensure uniformity and reproducibility, standards with known viral copy numbers of HIV89.6 (NIH NIAID repository) were prepared. A known amount of virus was spiked into cell culture medium in ten-fold serial dilutions. HIV-1 RNA was extracted using the High Pure viral RNA kit (Ambion). Complementary DNA (cDNA) was synthesized with the SuperScript III cDNA Synthesis Kit (Invitrogen) and amplified and quantified using primers specific for HIV-1 LTR. Real-time PCR amplification was performed in a CFX96™ Real-Time system (Bio-Rad, Hercules, CA). […] HIV-1 specific amplicons were detected using SYBR Green (Bio-Rad). The number of HIV-1 RNA copies in each test template was measured by its threshold cycle (Ct) as determined from the curve of serially diluted standards using data analysis software (Bio-Rad CFX Manager). […] Quantification of HIV-1 RNA in each test sample was back calculated and viral load was expressed as copies/ml. […]
Quantitative real time PCR was performed using BioRad CFX 96 with the known amounts of HIV-1 RNA as standards. The starting quantity of HIV-1 RNA in the samples treated with different compounds was determined using the standard curve and is plotted on the graph. […]

The next data set has as its system HIV-1 89.6. Description: Anti-HIV activity in PBMC culture ex vivo, p24 in culture supernatants. The data set is classed as cell-based, human. The following applies: PBMCs infected with HIV-1 89.6, day 3 of the culture. How it is done:
PBMCs were treated with NCD1 or not treated, followed by infection with HIV-1 89.6. Samples were pelleted on days 0, 2, and 3. Culture supernatants were assayed for p24 concentration. The assay was done in triplicate.
HIV p24 Assay: HIV-1 p24 ELISA was performed using HIV-1 p24 antigen capture assay according to manufacturer's protocol (Advanced BioSciences Laboratory).
To confirm the activity of the newly synthesized compounds in HIV infected human cells, peripheral blood mononuclear cells (PBMCs) from healthy humans were cultured and parallel assays with PBMCs treated with NCD1 and samples with no treatment were run, followed by infection with HIV-1 89.6. Samples were pelleted on days 0, 2, and 3. Culture supernatants were assayed for p24 concentration.

For the substance Oligochitosan 10 kDa [NCD1], the solubility in water entry in the data set “Solubility in water” is reported as “soluble”. In the data set on HIV-89.6, the “binding to HIV” value is “surprising and unexpected binding to HIV”. The “p24 levels in culture supernatants, treated vs non-treated cells” value in the data set with HIV-1 89.6 was “significantly reduced”.

With Starch azure [NCD9], the solubility in water result in “Solubility in water” was “insoluble in water”.
